According to paper PMC10819888, “Benzimidazole-Based Derivatives as Apoptotic Antiproliferative Agents: Design, Synthesis, Docking, and Mechanistic Studies” (Molecules, 2024):

Legend:
Assay in all cases: NCI-60 one-dose assay
Type in all cases: cell-based
OVCAR-4 = details: Homo sapiens, OVCAR-4 (ovarian cancer), read-out: Cell Inhibition Percent
Experimental: (§1) The final compounds were submitted to the National Cancer Institute, Bethesda, USA, for screening in vitro for anti-cancer. […] compounds, 4a–j, 5, and 6, were selected according to the Development Therapeutic Program (DTP) protocol. The selected compounds were evaluated for their in vitro cytotoxic activity against a panel of sixty cancer cell lines (NCI-60 cell line panel) derived from six cell lines panel of leukemia, nine cell lines of lung cancer, six cell lines of CNS cancer, seven cell lines of colon cancer, eight cell lines of melanoma, six cell lines of ovarian cancer, eight cell lines of renal cancer, two cell lines of prostate cancer, and eight cell lines of breast cancer, representing the full nine human systems as leukemia, melanoma, and cancers of the lung, colon, brain, breast, ovary, kidney, and prostate.
(§2) The selected compounds 4a–j, 5, and 6 were tested at a single concentration of 10 µM. The screening results for the selected compounds are illustrated in Table 1.
(§3) The NCI anti-cancer screening methodology has been described in detail elsewhere (http://www.dtp.nci.nih.gov, accessed on 20 February 2021). Following the Drug Evaluation Branch protocol, National Cancer Institute, Bethesda, USA, a primary anti-cancer assay was performed on approximately 60 human tumor cell line panels derived from nine neoplastic diseases.

EKVX = details: Homo sapiens, EKVX (Non-Small Cell Lung Cancer), read-out: Cell Inhibition Percent
Experimental: as §1, §2, §3

KM12 = details: Homo sapiens, KM12 (Colon Cancer), read-out: Cell Inhibition Percent
Experimental: as §1, §2, §3

TK-10 = details: Homo sapiens, TK-10 (Renal Cancer), read-out: Cell Inhibition Percent
Experimental: as §1, §2, §3

CAKI-1 = details: Homo sapiens, CAKI-1 (Renal Cancer), read-out: Cell Inhibition Percent
Experimental: as §1, §2, §3

HT29 = details: Homo sapiens, HT-29, HT29 (Colon Cancer), read-out: Cell Inhibition Percent
Experimental: as §1, §2, §3

NCI-H23 = details: Homo sapiens, NCI-H23 (Non-Small Cell Lung Cancer), read-out: Cell Inhibition Percent
Experimental: as §1, §2, §3

OVCAR-3 = details: Homo sapiens, OVCAR-3 (ovarian cancer), read-out: Cell Inhibition Percent
Experimental: as §1, §2, §3

DU-145 = details: Homo sapiens, DU-145 (Prostate Cancer), read-out: Cell Inhibition Percent
Experimental: as §1, §2, §3

HCT-15 = details: Homo sapiens, HCT-15 (Colon Cancer), read-out: Cell Inhibition Percent
Experimental: as §1, §2, §3

SK-MEL-5 = details: Homo sapiens, SK-MEL-5 (Melanoma), read-out: Cell Inhibition Percent
Experimental: as §1, §2, §3

M14 = details: Homo sapiens, M14 (Melanoma), read-out: Cell Inhibition Percent
Experimental: as §1, §2, §3

SW-620 = details: Homo sapiens, SW-620 (Colon Cancer), read-out: Cell Inhibition Percent
Experimental: as §1, §2, §3

UO-31 = details: Homo sapiens, UO-31 (Renal Cancer), read-out: Cell Inhibition Percent
Experimental: as §1, §2, §3

SK-OV-3 = details: Homo sapiens, SK-OV-3 (ovarian cancer), read-out: Cell Inhibition Percent
Experimental: as §1, §2, §3

LOX IMVI = details: Homo sapiens, LOX IMVI (Melanoma), read-out: Cell Inhibition Percent
Experimental: as §1, §2, §3

MDA-MB-435 = details: Homo sapiens, MDA-MB-435 (Melanoma), read-out: Cell Inhibition Percent
Experimental: as §1, §2, §3

COLO 205 = details: Homo sapiens, COLO 205 (Colon Cancer), read-out: Cell Inhibition Percent
Experimental: as §1, §2, §3

NCI-H226 = details: Homo sapiens, NCI-H226 (Non-Small Cell Lung Cancer), read-out: Cell Inhibition Percent
Experimental: as §1, §2, §3

U251 = details: Homo sapiens, U-251, U251 (CNS cancer), read-out: Cell Inhibition Percent
Experimental: as §1, §2, §3

HCC-2998 = details: Homo sapiens, HCC-2998 (Colon Cancer), read-out: Cell Inhibition Percent
Experimental: as §1, §2, §3

SF-295 = details: Homo sapiens, SF-295 (CNS cancer), read-out: Cell Inhibition Percent
Experimental: as §1, §2, §3

MDA-MB-468 = details: Homo sapiens, MDA-MB-468 (Breast Cancer), read-out: Cell Inhibition Percent
Experimental: as §1, §2, §3

UACC-257 = details: Homo sapiens, UACC-257 (Melanoma), read-out: Cell Inhibition Percent
Experimental: as §1, §2, §3

PC-3 = details: Homo sapiens, PC-3 (Prostate Cancer), read-out: Cell Inhibition Percent
Experimental: as §1, §2, §3

HL-60(TB) = details: Homo sapiens, HL-60(TB) (Leukemia), read-out: Cell Inhibition Percent
Experimental: as §1, §2, §3

MALME-3M = details: Homo sapiens, MALME-3M (Melanoma), read-out: Cell Inhibition Percent
Experimental: as §1, §2, §3

SK-MEL-2 = details: Homo sapiens, SK-MEL-2 (Melanoma), read-out: Cell Inhibition Percent
Experimental: as §1, §2, §3

HOP-62 = details: Homo sapiens, HOP-62 (Non-Small Cell Lung Cancer), read-out: Cell Inhibition Percent
Experimental: as §1, §2, §3

IGROV1 = details: Homo sapiens, IGROV-1, IGROV1 (ovarian cancer), read-out: Cell Inhibition Percent
Experimental: as §1, §2, §3

RPMI-8226 = details: Homo sapiens, RPMI-8226 (Leukemia), read-out: Cell Inhibition Percent
Experimental: as §1, §2, §3

Structure (SMILES)	inhibition at 10 µM (OVCAR-4) [%]	inhibition at 10 µM (EKVX) [%]	inhibition at 10 µM (KM12) [%]	inhibition at 10 µM (TK-10) [%]	inhibition at 10 µM (CAKI-1) [%]	inhibition at 10 µM (HT29) [%]	inhibition at 10 µM (NCI-H23) [%]	inhibition at 10 µM (OVCAR-3) [%]	inhibition at 10 µM (DU-145) [%]	inhibition at 10 µM (HCT-15) [%]	inhibition at 10 µM (SK-MEL-5) [%]	inhibition at 10 µM (M14) [%]	inhibition at 10 µM (SW-620) [%]	inhibition at 10 µM (UO-31) [%]	inhibition at 10 µM (SK-OV-3) [%]	inhibition at 10 µM (LOX IMVI) [%]	inhibition at 10 µM (MDA-MB-435) [%]	inhibition at 10 µM (COLO 205) [%]	inhibition at 10 µM (NCI-H226) [%]	inhibition at 10 µM (U251) [%]	other results
O=C(NN=Cc1ccccc1)c1ccc2[nH]c(-c3ccc(Cl)cc3)nc2c1 [Compound 4a, N′-Benzylidene-2-(4-chlorophenyl)-1H-benzimidazole-5-carbohydrazide]	0	1.38	3.8	0	1.57	3.67	1.85	0	3.83	4.81	4.85	8.89	0	8.73	4.7	7.23	0	0.76	5.74	4.35	inhibition at 10 µM (HCC-2998): 0%; inhibition at 10 µM (SF-295): 13.2%; inhibition at 10 µM (MDA-MB-468): 0%; inhibition at 10 µM (UACC-257): 0%; inhibition at 10 µM (PC-3): 0%; inhibition at 10 µM (HL-60(TB)): 0%; inhibition at 10 µM (MALME-3M): 1.28%; inhibition at 10 µM (SK-MEL-2): 0%; inhibition at 10 µM (HOP-62): 0%; inhibition at 10 µM (IGROV1): 4.8%; inhibition at 10 µM (RPMI-8226): 13.8%
CN(C)c1ccc(C=NNC(=O)c2ccc3[nH]c(-c4ccc(Cl)cc4)nc3c2)cc1 [Compound 4b, N′-(4-(Dimethylamino)benzylidene)-2-(4-chlorophenyl)-1H-benzimidazole-5-carbohydrazide]	0	2.85	2.41	0	4.4	2.26	1.51	0	0	0	5.02	3.58	0	13.3	0	3.7	0	0	4.67	0	inhibition at 10 µM (HCC-2998): 6.31%; inhibition at 10 µM (SF-295): 1.06%; inhibition at 10 µM (MDA-MB-468): 0%; inhibition at 10 µM (UACC-257): 0%; inhibition at 10 µM (PC-3): 4.81%; inhibition at 10 µM (HL-60(TB)): 0%; inhibition at 10 µM (MALME-3M): 12.9%; inhibition at 10 µM (SK-MEL-2): 0%; inhibition at 10 µM (HOP-62): 2.51%; inhibition at 10 µM (IGROV1): 15%; inhibition at 10 µM (RPMI-8226): 5.27%
CCNC(=S)NNC(=O)c1ccc2[nH]c(-c3ccc(Cl)cc3)nc2c1 [Compound 5]	5.13	18.2	7.97	0	17.1	2.33	5.79	0	0	5.9	9.57	1.67	0	6.39	0.37	12.4	0.91	0	9.79	2.36	inhibition at 10 µM (HCC-2998): 5.54%; inhibition at 10 µM (MDA-MB-468): 0%; inhibition at 10 µM (UACC-257): 0%; inhibition at 10 µM (PC-3): 7.83%; inhibition at 10 µM (HL-60(TB)): 0%; inhibition at 10 µM (MALME-3M): 1.54%; inhibition at 10 µM (SK-MEL-2): 0%; inhibition at 10 µM (HOP-62): 0.87%; inhibition at 10 µM (IGROV1): 14.3%; inhibition at 10 µM (RPMI-8226): 95.8%
